The record followed here is US8354419B2, “Benzimidazole analogues for the treatment or prevention of flavivirus infections” (Vertex Pharmaceuticals Incorporated, priority 2009, dated 2013).

Where only a bound is given, the exact number is not on record here.

For the experiment, the system named is HCV (Ib) RNA replication. The experiment in a line: Cell-based luciferase reporter HCV (1b) RNA replication assay (replicon cell lines Huh-7 5.2 and ET). To be noted: Hepatitis C virus, Huh-7, 96 h, HCV 1b genotype replicon, luciferase readout, 4 days incubation; read-out: EC50_1b. Details: species or system Hepatitis C virus. An outline of the steps: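 Huh-7-derived 5.2 or ET replicon cells carrying a firefly luciferase reporter were seeded at ~3000 cells/well in medium without G418 or phenol red. Compound was added after 3-4 h, followed by 4 days at 37 °C. Luciferase readout was used, with IC50 fitted by nonlinear regression from eleven concentrations in duplicate.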
In general terms: A reporter such as luciferase makes a cellular process visible.
As to `COC(=O)N[C@H](C(=O)N1CCC[C@H]1c1nc2cc(-c3ccc(-c4ccc5[nH]c([C@@H]6CCCN6C(=O)[C@@H](NC(=O)OC)C(C)C)nc5c4)c4ncccc34)ccc2[nH]1)C(C)C` [Compound 163], the EC50 is ≤ 5 nM. With `Cc1nc(C)c(C(=O)N2CCC[C@H]2c2nc3cc(C#Cc4ccc5nc([C@@H]6CCCN6C(=O)c6sc(C)nc6C)[nH]c5c4)ccc3[nH]2)s1` [Compound 152], the EC50 was 5 to 5000 nM. In the case of `O=C([C@H]1C[C@H](O)CN1)N1CCC[C@H]1c1nc2cc(C#Cc3ccc4[nH]c([C@@H]5CCCN5C(=O)[C@H]5C[C@H](O)CN5)nc4c3)ccc2[nH]1` [Compound 100], the EC50 is > 5000 nM. With `CC(C)[C@H](N)C(=O)N1CCC[C@H]1c1nc2ccc(-c3ccc(-c4ccc5nc([C@@H]6CCCN6C(=O)[C@@H](N)C(C)C)[nH]c5c4)cc3)cc2[nH]1` [Compound 197], the EC50 lay in the range of 5 to 5000 nM. On to `CC(C)(C)OC(=O)N1CCCC[C@H]1c1nc2cc(-c3ccc(-c4ccc5nc([C@@H]6CCCCN6C(=O)OC(C)(C)C)[nH]c5c4)s3)ccc2[nH]1` [Compound 112], for which the EC50 was 5 to 5000 nM. For `COC(=O)NC(C(=O)N1CCCC1c1nc2cc(-c3ccc(-c4ccc5[nH]c([C@@H]6CCCN6C(=O)C(NC(=O)OC)C(C)(C)F)nc5c4)cc3)ccc2[nH]1)C(C)(C)F` (stereo partly shown) [Compound 179], the EC50 is ≤ 5 nM. The result for `O=C(C1CCCC1)N1CCCC[C@H]1c1nc2cc(C#CC#Cc3ccc4[nH]c([C@@H]5CCCCN5C(=O)C5CCCC5)nc4c3)ccc2[nH]1` [Compound 120] reads > 5000 nM. The result for `O=C1CCC(C(=O)N2CCC[C@H]2c2nc3cc(C#Cc4ccc5nc([C@@H]6CCCN6C(=O)[C@@H]6CCC(=O)N6)[nH]c5c4)ccc3[nH]2)N1` (stereo partly shown) [Compound 67] reads 5 to 5000 nM; that for `COC(=O)N[C@H](C(=O)N1CCC[C@H]1c1nc2cc(-c3ccc(-c4ccc5[nH]c([C@@H]6CCCN6C(=O)[C@@H](NC(=O)OC)C(C)C)nc5c4)c(Cl)c3)ccc2[nH]1)C(C)C` [Compound 10, ((S)-1-{(S)-2-[5-(2-Chloro-4-{2-[(S)-1-((S)-2-methoxycarbonylamino-3-methyl-butyryl)-pyrrolidin-2-yl]-1H-benzoimidazol-5-yl}-phenyl)-1H-benzoimidazol-2-yl]-pyrrolidine-1-carbonyl}-2-methyl-propyl)-carbamic acid methyl ester], ≤ 5 nM; that for `COC(=O)N[C@H](C(=O)N1C(C)CC[C@H]1c1nc2cc(-c3ccc(-c4ccc5[nH]c([C@@H]6CCC(C)N6C(=O)[C@@H](NC(=O)OC)C(C)C)nc5c4)c(C)c3)ccc2[nH]1)C(C)C` (stereo partly shown) [Compound 300], ≤ 5 nM. The same measure for `COC(=O)N[C@H](C(=O)N1C[C@@H](C)C[C@H]1c1nc2cc(-c3ccc(-c4ccc5[nH]c([C@@H]6C[C@H](C)CN6C(=O)[C@H](C(C)C)N(C)C(=O)OC)nc5c4)cc3)ccc2[nH]1)C(C)C` [Compound 253]: ≤ 5 nM; for `COC(=O)N(C)[C@H](C(=O)N1C[C@@H](C)C[C@H]1c1nc2ccc(-c3ccc(-c4ccc5nc([C@@H]6C[C@H](C)CN6C(=O)[C@H](C(C)C)N(C)C(=O)OC)n(C)c5c4)cc3)cc2[nH]1)C(C)C` [Compound 296]: ≤ 5 nM; for `CC(C)[C@@H](C(=O)N1C[C@@H](C)C[C@H]1c1nc2cc(-c3ccc(-c4ccc5[nH]c([C@@H]6C[C@H](C)CN6C(=O)[C@H](C(C)C)N6CCOC6=O)nc5c4)cc3)ccc2[nH]1)N1CCOC1=O` [Compound 306]: ≤ 5 nM. Take `COC(=O)N(C)[C@H](C(=O)N1C[C@@H](C)C[C@H]1c1nc2cc(-c3cc(C)c(-c4ccc5[nH]c([C@@H]6C[C@H](C)CN6C(=O)[C@H](C(C)C)N(C)C(=O)OC)nc5c4)cc3C)ccc2[nH]1)C(C)C` [Compound 277]: the EC50 is ≤ 5 nM.

With `COC(=O)N[C@@H](C)C(=O)N1CCC[C@H]1c1nc2cc(C#Cc3ccc4[nH]c([C@@H]5CCCN5C(=O)[C@H](NC(=O)OC)c5ccccc5)nc4c3)ccc2[nH]1` [Compound 55], the EC50 was ≤ 5 nM. The result for `CC(C)(C)OC(=O)NC(C)(C)C(=O)N1CCC[C@H]1c1nc2cc(C#Cc3ccc4[nH]c([C@@H]5CCCN5C(=O)C(C)(C)NC(=O)OC(C)(C)C)nc4c3)ccc2[nH]1` [Compound 128] reads 5 to 5000 nM; that for `CC(C)[C@H](NC(=O)O[C@H]1CCOC1)C(=O)N1CCC[C@H]1c1nc2cc(-c3csc(-c4ccc5[nH]c([C@@H]6CCCN6C(=O)[C@@H](NC(=O)O[C@H]6CCOC6)C(C)C)nc5c4)n3)ccc2[nH]1` [Compound 160], 5 to 5000 nM; that for `COC(=O)N[C@@H](Cc1cncn1C)C(=O)N1CCC[C@H]1c1nc2cc(-c3ccc(-c4ccc5[nH]c([C@@H]6CCCN6C(=O)[C@@H](NC(=O)OC)C(C)C)nc5c4)cc3)ccc2[nH]1` [Compound 203], ≤ 5 nM. As for `C(#Cc1ccc2[nH]c([C@@H]3CCCN3CC3CCCCC3)nc2c1)c1ccc2[nH]c([C@@H]3CCCN3CC3CCCCC3)nc2c1` [Compound 136], the EC50 was in the range of 5 to 5000 nM. Turning to `C[C@@H]1CN(c2ccc3nc([C@@H]4CCCN4C(=O)OC(C)(C)C)[nH]c3c2)CCN1c1ccc2nc([C@@H]3CCCN3C(=O)OC(C)(C)C)[nH]c2c1` [Compound 283], the EC50 is > 5000 nM. The result for `COC(=O)NCCN1CCC[C@H]1c1nc2cc(C#Cc3ccc4[nH]c([C@@H]5CCCN5CCNC(=O)OC)nc4c3)ccc2[nH]1` [Compound 151] reads 5 to 5000 nM.

Turning to `COC(=O)N[C@H](C(=O)N1C[C@@H](O)C[C@H]1c1nc2cc(-c3ccc(-c4ccc5[nH]c([C@@H]6C[C@H](O)CN6C(=O)[C@@H](NC(=O)OC)C(C)C)nc5c4)c(C)c3)ccc2[nH]1)C(C)C` [Compound 265], the EC50 was ≤ 5 nM.

Take `COC(=O)N[C@H](C(=O)N1CCC[C@H]1c1nc2cc(C#CC#Cc3ccc4nc([C@@H]5CCCN5C(=O)[C@H](NC(=O)OC)C(C)C)[nH]c4c3)ccc2[nH]1)C(C)C` [Compound 74]: the EC50 is ≤ 5 nM. As to `COC(=O)N[C@H](C(=O)N1CCC[C@H]1c1nc2ccc(-c3cn(C)c(-c4ccc5nc([C@@H]6CCCN6C(=O)[C@@H](NC(=O)OC)C(C)C)[nH]c5c4)n3)cc2[nH]1)C(C)C` [Compound 238], the EC50 was in the range of 5 to 5000 nM. On to `CC(C)(C)OC(=O)N1CCC[C@H]1c1nc2cc(N3CCCN(c4ccc5nc([C@@H]6CCCN6C(=O)OC(C)(C)C)[nH]c5c4)CC3)ccc2[nH]1` [Compound 273], for which the EC50 was > 5000 nM. As to `Cn1c([C@@H]2CCCN2)nc2cc(-c3ccc(-c4ccc5[nH]c([C@@H]6CCCN6)nc5c4)cc3)ccc21` [Compound 228], the EC50 was > 5000 nM.

As to `COC(=O)N[C@H](C(=O)N1CCC[C@H]1c1nc2c(F)cc(-c3ccc(-c4cc(F)c5nc([C@@H]6CCCN6C(=O)[C@@H](NC(=O)OC)C(C)C)[nH]c5c4)cc3)cc2[nH]1)C(C)C` [Compound 250], the EC50 was ≤ 5 nM.

With `CC(C)[C@H](NC(=O)O[C@H]1CCOC1)C(=O)N1CCC[C@H]1c1nc2cc(-c3cscc3-c3ccc4[nH]c([C@@H]5CCCN5C(=O)[C@@H](NC(=O)O[C@H]5CCOC5)C(C)C)nc4c3)ccc2[nH]1` [Compound 45, bis((S)-tetrahydrofuran-3-yl)-(2S,2′S)-1,1′-((2S,2′S)-2,2′-(5,5′-(thiophene-3,4-diyl)bis(1H-benzo[d]imidazole-5,2-diyl))bis(pyrrolidine-2,1-diyl))bis(3-methyl-1-oxobutane-2,1-diyl)dicarbamate], the EC50 lay within 5 to 5000 nM.
